Measurements reported in US6447768B1, “Methods of gene therapy with a DNA sequence encoding NOS” (priority 1998, dated 2002).

Test system: Human foreskin microvascular endothelial cells (MVEC)
Assay: Angiogenesis assay: capillary-like tube formation of MVEC in fibrin matrix
Format: cell-based
Settings: for formation of capillary-like structures in fibrin matrices: uninfected MVEC, in combination with TNF-α
Method: Human foreskin microvascular endothelial cells (MVEC) were grown to confluency in M199 medium supplemented with 10% human serum (HS), 10% new-born calf serum (NBCS), penicillin and streptomycin and infected with 3.10_ pfu/ml Ad.IG.CMV.eNOS for 1 hour in M199 +2% NBCS. Medium was refreshed and cells were incubated overnight in M199+10% HS+10% NBCS.
Angiogenesis was analysed as described in Koolwijk et al. J. Cell Biol. 132 p1177-1188 (1996). Briefly, highly confluent MVEC were detached, seeded in a 1.25:1 split ratio on human fibrin matrices as cultures consisting either of uninfected cells, 100% infected cells or mixed cultures consisting of 10% infected/90% uninfected cells and cultured in M199 medium supplemented with 10% human serum (HS), 10% new-born calf serum (NBCS), penicillin and streptomycin.
Invading cells and the formation of tubular structures of endothelial cells in the three-dimensional fibrin matrix were analysed by phase contrast microscopy. After 7 days the total length of the tube-like structure of six randomly chosen microscopic fields per well (7.3 mm^2/field=43.8% of the total well) was measured using a Nikon FXA microscope equipped with a monochrome CCD camera (MX5) connected to a computer with Optimas image analysis software, and expressed as total tube length/cm^2.
For the angiogenesis experiments incubations are performed with cultures of uninfected cells, 10% infected MVEC and of 100% infected MVEC.
All incubations have been performed in the presence of 1 ng/ml TNF-α. Specific conditions tested in the presence and absence of virus were control, +bFGF: 5 ng/ml, +VEGF: 25 ng/ml, +bFGF+L-NAME: 5 ng/ml, 100 iM

Row | Compound | formation of capillary-like structures in fibrin matrices | effect on tube formation (100 μM, bFGF+TNF-α stimulated cultures, with and without NOS infected cells)
1 | VEGF | formed capillary-like structures | 
2 | bFGF: basic Fibroblast Growth Factor | formed capillary-like structures | 
3 | COC(=O)[C@@H](N)CCCNC(=N)N[N+](=O)[O-] [L-NAME] |  | small reduction of tube formation
